Results on 17 molecules are retold here after patent publication US20260325533A1, “CDK INHIBITOR COMPOUNDS” (ALEKSIA THERAPEUTICS, INC., priority 2023, published 2026).

The structures appear in SMILES notation. Like-named read-outs stand apart in the source and are kept apart here.

Type in all cases: biochemical
One test has as its target CDK4/CCND3 (Homo sapiens, UniProt P11802). The experiment in a line: CDK4 homogeneous time-resolved fluorescence (HTRF) kinase assay. The following applies: CDK4/CCND. In outline: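 Steps: compound plus 1.5 nM CDK4/CCND3, 20 min, 23 °C; add 1 mM ATP and 50 nM ULight-4E-BP1 (Thr37/46) peptide, 60 min; stop with 10 mM EDTA; add 2 nM Eu anti-phospho antibody, 60 min; read 665 nm. IC50 from 11-point half-log series starting 10 μM.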

A further test has as its target CDK6/CCND1 (Homo sapiens, UniProt Q00534). The experiment in a line: CDK6 homogeneous time-resolved fluorescence (HTRF) kinase assay. The following applies: CDK6/CCND, 1 mM ATP. In short, it runs like this:
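Enzyme pre-incubated 20 min at 23 °C with compound, then reacted 60 min at 23 °C with 1 mM ATP and 50 nM ULight-4E-BP1 (Thr37/46) peptide; 1 nM enzyme, 1% DMSO. EDTA-stopped, Eu-anti-phospho antibody TR-FRET read (665 nm or 665/615 ratio); 11-point half-log titration from 10 μM gave IC50.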
A general note: Time-resolved FRET reads energy transfer from a long-lived donor to a nearby acceptor.

The next test has as its target CDK1/CCNB1 (Homo sapiens, UniProt P06493). The experiment in a line: CDK1 homogeneous time-resolved fluorescence (HTRF) kinase assay. The following applies: CDK1/CCNB. In outline: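 High-ATP (1 mM) HTRF assay with 0.5 nM CDK1/cyclin B1 and 50 nM ULight-4E-BP1 (Thr37/46) substrate, 60 min at 23 °C after 20-min compound preincubation. IC50 values come from dose-response curves.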

In the next test the target is CDK2/CCNE1 (Homo sapiens, UniProt P24941). The test can be described thus: CDK2 homogeneous time-resolved fluorescence (HTRF) kinase assay. The note with it: CDK2/CCNE. In short, it runs like this: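 CDK2/CCNE1 (3 nM) preincubated 20 min at 23 °C with compound, then reacted 60 min at 23 °C with 1 mM ATP and 50 nM ULight-4E-BP1 (Thr37/46) peptide. Stopped with EDTA, phospho-peptide detected by Eu-anti-phospho antibody (665 nm or 665/615 ratio). IC50 from 11-point half-log titrations typically starting at 10 μM.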

[1] abbreviates: >250 nM, read-out: CDK4/CCND IC50, >250 nM.
Setting [2] is: >250 nM, read-out: CDK6/CCND IC50, >250 nM.
Where [3] appears, read: >250 nM, read-out: CDK1/CCNB IC50 >250 nM.
The mark [4] stands for this setting: <25 nM, read-out: CDK2/CCNE IC50, <25 nM.
Setting [5] is: 25-250 nM, read-out: CDK4/CCND IC50, 25-250 nM.
The mark [6] stands for this setting: 25-250 nM, read-out: CDK6/CCND IC50, 25-250 nM.
The mark [7] stands for this setting: 25-250 nM, read-out: CDK2/CCNE IC50, 25-250 nM.

Chain of CDK6/CCND1 (Q00534 whole entry): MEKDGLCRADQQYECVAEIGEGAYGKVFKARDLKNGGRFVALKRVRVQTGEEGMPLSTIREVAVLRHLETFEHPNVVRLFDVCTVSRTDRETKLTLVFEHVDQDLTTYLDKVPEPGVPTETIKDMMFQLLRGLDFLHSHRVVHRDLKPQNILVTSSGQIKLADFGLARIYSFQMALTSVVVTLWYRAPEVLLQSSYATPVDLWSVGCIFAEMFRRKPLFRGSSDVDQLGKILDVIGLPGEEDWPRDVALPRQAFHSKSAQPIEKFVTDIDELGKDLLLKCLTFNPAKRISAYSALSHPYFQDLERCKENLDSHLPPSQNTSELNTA
Chain of CDK6/CCND1 (P24385 whole entry partner): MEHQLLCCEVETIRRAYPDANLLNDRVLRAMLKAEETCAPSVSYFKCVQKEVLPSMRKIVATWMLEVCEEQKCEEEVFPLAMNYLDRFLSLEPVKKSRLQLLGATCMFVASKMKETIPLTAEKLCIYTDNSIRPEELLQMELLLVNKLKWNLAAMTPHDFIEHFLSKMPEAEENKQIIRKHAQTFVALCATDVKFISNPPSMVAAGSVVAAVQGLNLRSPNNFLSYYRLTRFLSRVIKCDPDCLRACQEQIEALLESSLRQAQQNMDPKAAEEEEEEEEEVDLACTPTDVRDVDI
Chain of CDK1/CCNB1 (P06493 whole entry): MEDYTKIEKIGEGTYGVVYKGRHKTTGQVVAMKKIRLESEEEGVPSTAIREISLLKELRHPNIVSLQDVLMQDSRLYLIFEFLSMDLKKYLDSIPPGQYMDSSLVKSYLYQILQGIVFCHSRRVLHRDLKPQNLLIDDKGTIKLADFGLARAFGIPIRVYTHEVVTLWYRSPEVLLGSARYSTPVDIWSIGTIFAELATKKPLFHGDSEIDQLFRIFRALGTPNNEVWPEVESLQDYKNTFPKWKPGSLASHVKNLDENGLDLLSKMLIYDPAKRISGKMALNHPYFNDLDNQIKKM
Chain of CDK1/CCNB1 (P14635 whole entry partner): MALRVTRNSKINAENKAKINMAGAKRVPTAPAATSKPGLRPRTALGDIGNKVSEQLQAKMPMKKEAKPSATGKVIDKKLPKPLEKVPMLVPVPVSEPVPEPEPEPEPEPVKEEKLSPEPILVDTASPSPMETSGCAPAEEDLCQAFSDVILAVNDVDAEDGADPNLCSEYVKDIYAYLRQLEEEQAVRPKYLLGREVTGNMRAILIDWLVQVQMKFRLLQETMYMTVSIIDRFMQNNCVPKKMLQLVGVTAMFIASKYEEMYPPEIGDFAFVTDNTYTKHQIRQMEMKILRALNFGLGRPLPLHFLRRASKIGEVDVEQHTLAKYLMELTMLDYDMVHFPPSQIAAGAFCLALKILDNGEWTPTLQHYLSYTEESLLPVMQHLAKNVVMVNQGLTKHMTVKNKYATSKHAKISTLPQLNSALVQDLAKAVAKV
Chain of CDK4/CCND3 (P11802 whole entry): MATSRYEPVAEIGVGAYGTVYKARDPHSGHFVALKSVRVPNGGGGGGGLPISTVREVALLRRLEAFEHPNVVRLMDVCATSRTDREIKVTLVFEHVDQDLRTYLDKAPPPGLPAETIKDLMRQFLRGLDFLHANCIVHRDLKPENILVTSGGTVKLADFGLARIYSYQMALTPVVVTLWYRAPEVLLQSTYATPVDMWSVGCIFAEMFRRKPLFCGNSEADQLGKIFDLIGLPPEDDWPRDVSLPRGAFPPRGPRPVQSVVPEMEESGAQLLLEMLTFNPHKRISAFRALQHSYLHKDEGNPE
Chain of CDK4/CCND3 (P30281 whole entry partner): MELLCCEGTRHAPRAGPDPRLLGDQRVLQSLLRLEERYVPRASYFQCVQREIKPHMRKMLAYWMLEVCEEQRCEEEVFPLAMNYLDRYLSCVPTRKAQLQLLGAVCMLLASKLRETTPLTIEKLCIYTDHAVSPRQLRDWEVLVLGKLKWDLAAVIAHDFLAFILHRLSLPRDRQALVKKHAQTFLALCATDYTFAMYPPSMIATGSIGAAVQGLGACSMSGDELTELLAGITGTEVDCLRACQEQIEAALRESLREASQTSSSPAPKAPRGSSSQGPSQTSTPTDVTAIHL

As to `COc1cnc(NS(=O)(=O)c2ccc(Nc3cc4c(-c5ccc6c(cnn6CC(C)(C)O)c5C)nccc4cn3)cc2)nc1` [Ex 906, 4-((5-(1-(2-hydroxy-2-methylpropyl)-4-methyl-1H-indazol-5-yl)-2,6-naphthyridin-3-yl)amino)-N-(5-methoxypyrimidin-2-yl)benzenesulfonamide], the IC50 on CDK4/CCND3 (setting [1]) is more than 250 nM; on CDK6/CCND1 (setting [2]), more than 250 nM; on CDK1/CCNB1 (setting [3]), more than 250 nM; on CDK2/CCNE1 (setting [4]) it was less than 25 nM.

Regarding `Cc1c(-c2nccc3cnc(Nc4ccc(S(=O)(=O)Nc5nccc(C(F)(F)F)n5)cc4)cc23)ccc2c1cnn2CC(C)(C)O` [Ex 907, 4-((5-(1-(2-hydroxy-2-methylpropyl)-4-methyl-1H-indazol-5-yl)-2,6-naphthyridin-3-yl)amino)-N-(4-(trifluoromethyl)pyrimidin-2-yl)benzenesulfonamide], the IC50 at CDK4/CCND3 (setting [1]) was more than 250 nM; on CDK6/CCND1 (setting [2]), more than 250 nM; at CDK1/CCNB1 (setting [3]), more than 250 nM; on CDK2/CCNE1 (setting [4]) it was less than 25 nM.

On to `Cc1ccnc(NS(=O)(=O)c2ccc(Nc3cc4c(-c5ccc6c(cnn6CC(C)(C)O)c5C)nccc4cn3)cc2)n1` [Ex 908, 4-((5-(1-(2-hydroxy-2-methylpropyl)-4-methyl-1H-indazol-5-yl)-2,6-naphthyridin-3-yl)amino)-N-(4-methylpyrimidin-2-yl)benzenesulfonamide], for which the IC50 was 25 to 250 nM at CDK4/CCND3 (setting [5]), 25 to 250 nM on CDK6/CCND1 (setting [6]), more than 250 nM at CDK1/CCNB1 (setting [3]) and less than 25 nM at CDK2/CCNE1 (setting [4]).

On to `COc1nccc(C#Cc2nccc3cnc(Nc4ccc(S(C)(=O)=O)cc4)cc23)c1C` [Ex 909, 5-((2-methoxy-3-methylpyridin-4-yl)ethynyl)-N-(4-(methylsulfonyl)phenyl)-2,6-naphthyridin-3-amine], for which the IC50 was more than 250 nM at CDK4/CCND3 (setting [1]), more than 250 nM at CDK6/CCND1 (setting [2]), more than 250 nM at CDK1/CCNB1 (setting [3]) and 25 to 250 nM at CDK2/CCNE1 (setting [7]).

Take `COc1cc(C)c(C#Cc2nccc3cnc(Nc4ccc(S(C)(=O)=O)cc4)cc23)cn1` [Ex 910, 5-((6-methoxy-4-methylpyridin-3-yl)ethynyl)-N-(4-(methylsulfonyl)phenyl)-2,6-naphthyridin-3-amine]: the IC50 at CDK4/CCND3 (setting [1]) is more than 250 nM; at CDK6/CCND1 (setting [2]), more than 250 nM; at CDK1/CCNB1 (setting [3]) it was more than 250 nM; at CDK2/CCNE1 (setting [7]) it was 25 to 250 nM.

With `CS(=O)(=O)c1ccc(Nc2cc3c(C#Cc4cc(O)cc(F)c4)nccc3cn2)cc1` [Ex 911, 3-fluoro-5-((7-((4-(methylsulfonyl)phenyl)amino)-2,6-naphthyridin-1-yl)ethynyl)phenol], the IC50 at CDK4/CCND3 (setting [1]) was more than 250 nM; at CDK6/CCND1 (setting [2]), more than 250 nM; on CDK1/CCNB1 (setting [3]) it was more than 250 nM; at CDK2/CCNE1 (setting [7]), 25 to 250 nM.

As to `COc1cc(C#Cc2nccc3cnc(Nc4ccc(S(C)(=O)=O)cc4)cc23)ccc1F` [Ex 912, 5-((4-fluoro-3-methoxyphenyl)ethynyl)-N-(4-(methylsulfonyl)phenyl)-2,6-naphthyridin-3-amine], the IC50 on CDK4/CCND3 (setting [1]) was more than 250 nM; at CDK6/CCND1 (setting [2]), more than 250 nM; at CDK1/CCNB1 (setting [3]), more than 250 nM; on CDK2/CCNE1 (>250 nM, read-out: CDK2/CCNE IC50, >250 nM), more than 250 nM.

Consider `CS(=O)(=O)c1ccc(Nc2cc3c(C#Cc4cc(C(=O)O)c(N)cc4F)nccc3cn2)cc1` [Ex 913, 2-amino-4-fluoro-5-((7-((4-(methylsulfonyl)phenyl)amino)-2,6-naphthyridin-1-yl)ethynyl)benzoic acid], for which the IC50 is more than 250 nM on CDK4/CCND3 (setting [1]), more than 250 nM at CDK6/CCND1 (setting [2]), more than 250 nM at CDK1/CCNB1 (setting [3]) and 25 to 250 nM at CDK2/CCNE1 (setting [7]).

Regarding `Cc1c(-c2nccc3cnc(Nc4ccc5c(c4)CCCS5(=O)=O)cc23)ccc2c1cnn2CC(C)(C)O` [Ex 914, 6-((5-(1-(2-hydroxy-2-methylpropyl)-4-methyl-1H-indazol-5-yl)-2,6-naphthyridin-3-yl)amino)thiochromane 1,1-dioxide], the IC50 at CDK4/CCND3 (setting [5]) was 25 to 250 nM; at CDK6/CCND1 (setting [6]), 25 to 250 nM; at CDK1/CCNB1 (setting [3]) it was more than 250 nM; on CDK2/CCNE1 (setting [4]) it was less than 25 nM.

Turning to `Cc1c(-c2nccc3cnc(Nc4ccc5c(c4)CCS5(=O)=O)cc23)ccc2c1cnn2CC(C)(C)O` [Ex 915, 5-((5-(1-(2-hydroxy-2-methylpropyl)-4-methyl-1H-indazol-5-yl)-2,6-naphthyridin-3-yl)amino)-2,3-dihydrobenzo[b]thiophene 1,1-dioxide], the IC50 was 25 to 250 nM at CDK4/CCND3 (setting [5]), 25 to 250 nM at CDK6/CCND1 (setting [6]), more than 250 nM on CDK1/CCNB1 (setting [3]) and less than 25 nM on CDK2/CCNE1 (setting [4]).

With `Cc1c(-c2nccc3cnc(Nc4cccc5ccccc45)cc23)ccc2c1cnn2CC(C)(C)O` [Ex 916, 2-methyl-1-(4-methyl-5-(7-(naphthalen-1-ylamino)-2,6-naphthyridin-1-yl)-1H-indazol-1-yl)propan-2-ol], the IC50 at CDK4/CCND3 (setting [1]) is more than 250 nM; on CDK6/CCND1 (setting [2]), more than 250 nM; at CDK1/CCNB1 (setting [3]) it was more than 250 nM; on CDK2/CCNE1 (setting [7]) it was 25 to 250 nM.

On to `N#Cc1ccc(C#Cc2nccc3cnc(Nc4cnc(O)c(N5CCNCC5)c4)cc23)cc1` [Ex 917, 4-((7-((6-hydroxy-5-(piperazin-1-yl)pyridin-3-yl)amino)-2,6-naphthyridin-1-yl)ethynyl)benzonitrile], for which the IC50 at CDK4/CCND3 (setting [1]) is more than 250 nM; on CDK6/CCND1 (setting [2]) it was more than 250 nM; on CDK1/CCNB1 (setting [3]), more than 250 nM; at CDK2/CCNE1 (setting [7]), 25 to 250 nM.

For the molecule `Cc1c(-c2nccc3cnc(Nc4ccc(S(C)(=O)=O)c(N5CCN(CCO)CC5)c4)cc23)ccc2c1cnn2CC(C)(C)O` [Ex 919, 1-(5-(7-((3-(4-(2-hydroxyethyl)piperazin-1-yl)-4-(methylsulfonyl)phenyl)amino)-2,6-naphthyridin-1-yl)-4-methyl-1H-indazol-1-yl)-2-methylpropan-2-ol], the IC50 on CDK4/CCND3 (setting [1]) is more than 250 nM; at CDK6/CCND1 (setting [2]), more than 250 nM; on CDK1/CCNB1 (setting [3]), more than 250 nM; on CDK2/CCNE1 (setting [7]), 25 to 250 nM.

With `N#Cc1ccc(C#Cc2nccc3cnc(Nc4cnc(O)c(N5CCN(CCO)CC5)c4)cc23)cc1` [Ex 920, 4-((7-((6-hydroxy-5-(4-(2-hydroxyethyl)piperazin-1-yl)pyridin-3-yl)amino)-2,6-naphthyridin-1-yl)ethynyl)benzonitrile], the IC50 at CDK4/CCND3 (setting [1]) was more than 250 nM; at CDK6/CCND1 (setting [2]), more than 250 nM; at CDK1/CCNB1 (setting [3]), more than 250 nM; on CDK2/CCNE1 (setting [7]), 25 to 250 nM.

Turning to `Cc1c(-c2nccc3cnc(Nc4ccc(S(N)(=O)=O)cc4)cc23)ccc2c1cnn2CC(C)(C)O` [Ex 921, 4-((5-(1-(2-hydroxy-2-methylpropyl)-4-methyl-1H-indazol-5-yl)-2,6-naphthyridin-3-yl)amino)benzenesulfonamide], the IC50 is 25 to 250 nM at CDK4/CCND3 (setting [5]); 25 to 250 nM at CDK6/CCND1 (setting [6]); 25 to 250 nM at CDK1/CCNB1 (25-250 nM, read-out: CDK1/CCNB IC50, 25-250 nM); less than 25 nM at CDK2/CCNE1 (setting [4]).

For `Cc1c(-c2nccc3cnc(Nc4ccc(S(=O)(=O)N5CCOCC5)cc4)cc23)ccc2c1cnn2CC(C)(C)O` [Ex 922, 2-methyl-1-(4-methyl-5-(7-((4-(morpholinosulfonyl)phenyl)amino)-2,6-naphthyridin-1-yl)-1H-indazol-1-yl)propan-2-ol], the IC50 is 25 to 250 nM at CDK4/CCND3 (setting [5]), 25 to 250 nM at CDK6/CCND1 (setting [6]), more than 250 nM on CDK1/CCNB1 (setting [3]) and less than 25 nM on CDK2/CCNE1 (setting [4]).

On to `Cc1c(-c2nccc3cnc(Nc4ccc(S(=O)(=O)N5CCCCC5)cc4)cc23)ccc2c1cnn2CC(C)(C)O` [Ex 923, 2-methyl-1-(4-methyl-5-(7-((4-(piperidin-1-ylsulfonyl)phenyl)amino)-2,6-naphthyridin-1-yl)-1H-indazol-1-yl)propan-2-ol], for which the IC50 is more than 250 nM on CDK4/CCND3 (setting [1]), more than 250 nM on CDK6/CCND1 (setting [2]), more than 250 nM at CDK1/CCNB1 (setting [3]) and 25 to 250 nM on CDK2/CCNE1 (setting [7]).
